Measurements: PMC5947510 (2015)

Tested on: pre-miR-27a (RNA, miRNA) GGGCUGAGGAGCAGGGCUUAGCUGCUUGUGAGCAGGGUCCACACCAAGUCGUGUUCACAGUGGCUAAGUUCCGCCCCCCAG
Test: fluorescence titration (bisbenzimidazole emission)
Conditions: 10 mM NaCl, 1 mM MgCl2; 10 mM sodium cacodylate, pH 7.5, 25 °C; compound 500 nM

Ka [M⁻¹] | SMILES
1.2e+07 | CN1CCN(c2ccc3nc(-c4ccc5nc(-c6ccc(OCCCCCCCCCCOCc7cn(C[C@H]8O[C@@H](O[C@@H]9[C@@H](O)[C@H](N)C[C@H](N)[C@H]9O[C@H]9O[C@H](CN)[C@@H](O)[C@H](O)[C@H]9N)[C@H](O)[C@@H]8O[C@H]8O[C@@H](CN)[C@@H](O)[C@H](O)[C@H]8N)nn7)cc6)[nH]c5c4)[nH]c3c2)CC1
1.2e+08 | CN1CCN(c2ccc3nc(-c4ccc5nc(-c6ccc(OCCCCCCOCc7cn(C[C@H]8O[C@@H](O[C@@H]9[C@@H](O)[C@H](N)C[C@H](N)[C@H]9O[C@H]9O[C@H](CN)[C@@H](O)[C@H](O)[C@H]9N)[C@H](O)[C@@H]8O[C@H]8O[C@@H](CN)[C@@H](O)[C@H](O)[C@H]8N)nn7)cc6)[nH]c5c4)[nH]c3c2)CC1
3.4e+06 | CN1CCN(c2ccc3nc(-c4ccc5nc(-c6ccc(O)cc6)[nH]c5c4)[nH]c3c2)CC1

Continued, compound first:

SMILES | Ka [M⁻¹]
CN1CCN(c2ccc3nc(-c4ccc5nc(-c6ccc(OCCCCCCCCCc7cn(C[C@H]8O[C@@H](O[C@@H]9[C@@H](O)[C@H](N)C[C@H](N)[C@H]9O[C@H]9O[C@H](CN)[C@@H](O)[C@H](O)[C@H]9N)[C@H](O)[C@@H]8O[C@H]8O[C@@H](CN)[C@@H](O)[C@H](O)[C@H]8N)nn7)cc6)[nH]c5c4)[nH]c3c2)CC1 | 3.2e+08
CN1CCN(c2ccc3nc(-c4ccc5nc(-c6ccc(OCCCCCCCCOCc7cn(C[C@H]8O[C@@H](O[C@@H]9[C@@H](O)[C@H](N)C[C@H](N)[C@H]9O[C@H]9O[C@H](CN)[C@@H](O)[C@H](O)[C@H]9N)[C@H](O)[C@@H]8O[C@H]8O[C@@H](CN)[C@@H](O)[C@H](O)[C@H]8N)nn7)cc6)[nH]c5c4)[nH]c3c2)CC1 | 2.5e+07
CN1CCN(c2ccc3nc(-c4ccc5nc(-c6ccc(OCCCCOCc7cn(C[C@H]8O[C@@H](O[C@@H]9[C@@H](O)[C@H](N)C[C@H](N)[C@H]9O[C@H]9O[C@H](CN)[C@@H](O)[C@H](O)[C@H]9N)[C@H](O)[C@@H]8O[C@H]8O[C@@H](CN)[C@@H](O)[C@H](O)[C@H]8N)nn7)cc6)[nH]c5c4)[nH]c3c2)CC1 | 7.4e+08
